ChEMBL document CHEMBL1144048, “Facile preparation of new 4-phenylamino-3-quinolinecarbonitrile Src kinase inhibitors via 7-fluoro intermediates: identification of potent 7-amino analogs” (Bioorg Med Chem, 2008)
≈ marks a conversion by molar mass, not a printed value. Each block holds one molecule with its values, some of them ahead of it.

Assays:
[1] = Inhibition of human cSrc-vSrc fusion protein expressed in rat fibroblast cells by ELISA; type: cell-based
[2] = Solubility at pH 7.4; type: physicochemical; details: buffer
[3] = Drug level in nude mouse plasma at 50 mg/kg, po after 24 hrs; type: ADME, organism-based; design: dose 50 mg/kg, route oral
[4] = Stability in mouse plasma after 300 mins; type: ADME, cell-free; details: read-out: Stability
HT-29 = test: Inhibition of tumor growth in human HT29 cells xenografted nude mouse at 150 mg/kg, po OD after 14 days relative to control; type: functional; details: HT-29, 336 h
[5] = Drug level in nude mouse plasma at 50 mg/kg, po after 8 hrs; type: ADME, organism-based; design: dose 50 mg/kg, route oral
CYP2D6 = CYP2D6 (Homo sapiens, UniProt P10635); test: Inhibition of CYP2D6 at 3 uM; type: ADME
CYP3A4 = CYP3A4 (Homo sapiens, UniProt P08684); test: Inhibition of CYP3A4 at 3 uM; type: ADME
[6] = Permeability across artificial membrane by PAMPA; type: ADME; details: read-out: permeability
[7] = Drug level in nude mouse plasma at 50 mg/kg, po after 4 hrs; type: ADME, organism-based; design: dose 50 mg/kg, route oral
CYP2C9 = CYP2C9 (Homo sapiens, UniProt P11712); test: Inhibition of CYP2C9 at 3 uM; type: ADME
Sequence of CYP2C9 (P11712 whole entry): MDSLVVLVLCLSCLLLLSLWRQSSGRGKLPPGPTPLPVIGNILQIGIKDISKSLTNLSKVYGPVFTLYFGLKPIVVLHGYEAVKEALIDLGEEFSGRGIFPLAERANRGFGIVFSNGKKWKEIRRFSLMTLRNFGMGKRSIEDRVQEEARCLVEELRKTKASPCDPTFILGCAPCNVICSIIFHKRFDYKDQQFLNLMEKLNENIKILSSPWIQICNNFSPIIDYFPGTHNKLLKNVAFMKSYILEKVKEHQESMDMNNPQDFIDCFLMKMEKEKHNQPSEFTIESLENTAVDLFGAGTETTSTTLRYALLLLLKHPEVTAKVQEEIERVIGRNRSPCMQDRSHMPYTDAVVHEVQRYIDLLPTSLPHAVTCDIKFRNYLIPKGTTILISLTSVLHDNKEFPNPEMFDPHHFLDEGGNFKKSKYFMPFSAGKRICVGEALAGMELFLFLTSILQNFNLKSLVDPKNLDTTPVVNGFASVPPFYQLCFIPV

Sequence of CYP2D6 (P10635 whole entry): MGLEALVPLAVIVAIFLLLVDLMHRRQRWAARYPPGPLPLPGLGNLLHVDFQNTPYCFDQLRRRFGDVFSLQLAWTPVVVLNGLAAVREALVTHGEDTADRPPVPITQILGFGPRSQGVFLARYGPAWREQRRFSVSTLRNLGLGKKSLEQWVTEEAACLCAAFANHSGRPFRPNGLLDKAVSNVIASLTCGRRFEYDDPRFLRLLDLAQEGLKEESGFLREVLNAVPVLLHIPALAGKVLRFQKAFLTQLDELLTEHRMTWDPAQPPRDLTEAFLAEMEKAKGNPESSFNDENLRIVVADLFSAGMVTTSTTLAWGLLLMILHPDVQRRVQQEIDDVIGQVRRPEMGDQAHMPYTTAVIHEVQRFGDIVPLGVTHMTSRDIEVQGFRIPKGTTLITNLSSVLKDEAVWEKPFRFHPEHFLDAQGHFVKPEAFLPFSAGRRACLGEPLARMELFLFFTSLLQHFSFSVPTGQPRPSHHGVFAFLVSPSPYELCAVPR
Sequence of CYP3A4 (P08684 whole entry): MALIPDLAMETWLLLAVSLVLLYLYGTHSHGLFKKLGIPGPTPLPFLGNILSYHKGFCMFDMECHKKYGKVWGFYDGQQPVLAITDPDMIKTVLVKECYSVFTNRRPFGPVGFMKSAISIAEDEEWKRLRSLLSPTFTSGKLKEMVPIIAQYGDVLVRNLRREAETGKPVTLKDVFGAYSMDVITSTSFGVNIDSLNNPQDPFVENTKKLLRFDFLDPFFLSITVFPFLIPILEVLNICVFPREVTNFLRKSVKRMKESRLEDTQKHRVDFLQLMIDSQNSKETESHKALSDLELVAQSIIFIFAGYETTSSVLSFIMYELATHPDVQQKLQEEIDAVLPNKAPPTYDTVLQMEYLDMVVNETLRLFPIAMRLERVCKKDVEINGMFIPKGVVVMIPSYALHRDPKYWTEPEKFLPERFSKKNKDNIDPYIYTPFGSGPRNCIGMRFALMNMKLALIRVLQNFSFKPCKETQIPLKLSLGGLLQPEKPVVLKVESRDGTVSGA

SMILES: COCCNc1cc2ncc(C#N)c(Nc3cc(OC)c(Cl)cc3Cl)c2cc1OC
IC50 [1]: 1500 nM

SMILES: COc1cc(Nc2c(C#N)cnc3cc(OCCCN4CCN(C)CC4)ccc23)c(Cl)cc1Cl
IC50 [1]: 710 nM

SMILES: COc1cc(Nc2c(C#N)cnc3cc(N(C)CCCN(C)C)c(OC)cc23)c(Cl)cc1Cl
IC50 [1]: 2700 nM

SMILES: COCCOc1ccc2c(Nc3ccc(Cl)cc3Cl)c(C#N)cnc2c1
IC50 [1]: > 10000 nM

SMILES: COCCOc1cc2ncc(C#N)c(Nc3cc(OC)c(Cl)cc3Cl)c2cc1OC
IC50 [1]: 190 nM

solubility [2]: 32 µg/mL (≈ 60.4 µM)
concentration at 24 h [3]: 100 ng/mL
remaining at 5 h [4]: > 70%
concentration at 8 h [5]: 520 ng/mL
inhibition at 3 µM (CYP2D6): < 34%
inhibition at 3 µM (CYP3A4): < 34%
Papp [6]: 10.7 ×10⁻⁶ cm/s
concentration at 4 h [7]: 790 ng/mL
inhibition at 3 µM (CYP2C9): < 34%
SMILES: COc1cc(Nc2c(C#N)cnc3cc(NCCCN4CCN(C)CC4)c(OC)cc23)c(Cl)cc1Cl
IC50 [1]: 360 nM
inhibition in vivo at 150 mg/kg (HT-29): 63%

SMILES: COc1cc(Nc2c(C#N)cnc3cc(NCCCN4CCOCC4)c(OC)cc23)c(Cl)cc1Cl
IC50 [1]: 390 nM

solubility [2]: > 100 µg/mL
concentration at 24 h [3]: 80 ng/mL
remaining at 5 h [4]: > 70%
concentration at 8 h [5]: 410 ng/mL
inhibition at 3 µM (CYP2D6): < 34%
inhibition at 3 µM (CYP3A4): < 34%
Papp [6]: 7.3 ×10⁻⁶ cm/s
concentration at 4 h [7]: 610 ng/mL
inhibition at 3 µM (CYP2C9): < 34%
SMILES: COc1cc(Nc2c(C#N)cnc3cc(NCCCN(C)C)c(OC)cc23)c(Cl)cc1Cl
IC50 [1]: 300 nM
inhibition in vivo at 150 mg/kg (HT-29): 75%

SMILES: CCOc1cc2c(Nc3cc(OC)c(Cl)cc3Cl)c(C#N)cnc2cc1OCCOC
IC50 [1]: 180 nM

SMILES: COCCOc1ccc2c(Nc3cc(OC)c(Cl)cc3Cl)c(C#N)cnc2c1
IC50 [1]: 1600 nM

SMILES: CCOc1cc2c(Nc3cc(OC)c(Cl)cc3Cl)c(C#N)cnc2cc1OCCCN1CCN(C)CC1
IC50 [1]: 85 nM

concentration at 24 h [3]: 47 ng/mL
concentration at 4 h [7]: 1060 ng/mL
SMILES: COc1cc(Nc2c(C#N)cnc3cc(OCCCN4CCN(C)CC4)c(OC)cc23)c(Cl)cc1Cl [BOSUTINIB]
IC50 [1]: 100 nM
inhibition in vivo at 150 mg/kg (HT-29): 50%
